Literature values, collected in patent US11744878B2 (priority 2020, dated 2023).
Where no end group is shown, it is not given here.

Legend:
[1] = tested on: COVID-19; details: most critically ill patients with COVID-19; cited from earlier work
[2] = tested on: SARS coronavirus; details: cited from earlier work
[3] = tested on: pancreas; details: cited from earlier work
[4] = in vivo; cited from earlier work

CC[C@H](C)[C@H](NC(=O)[C@H](CO)NC(=O)[C@H](CC(N)=O)NC(=O)[C@H](CC(C)C)NC(=O)[C@H](Cc1ccc(O)cc1)NC(=O)[C@H](CCCCN)NC(=O)[C@H](CCCCN)NC(=O)[C@@H](NC(=O)[C@H](C)NC(=O)[C@H](CCSC)NC(=O)[C@H](CCC(N)=O)NC(=O)[C@H](CCCCN)NC(=O)[C@H](CCCNC(=N)N)NC(=O)[C@H](CC(C)C)NC(=O)[C@H](CCCNC(=N)N)NC(=O)[C@@H](NC(=O)[C@H](Cc1ccc(O)cc1)NC(=O)[C@H](CC(N)=O)NC(=O)[C@H](CC(=O)O)NC(=O)[C@@H](NC(=O)[C@H](Cc1ccccc1)NC(=O)[C@@H](NC(=O)[C@H](C)NC(=O)[C@H](CC(=O)O)NC(=O)[C@H](CO)NC(=O)[C@@H](N)Cc1c[nH]cn1)C(C)C)[C@@H](C)O)[C@@H](C)O)C(C)C)C(=O)N[C@@H](CC(C)C)C(=O)N[C@@H](CC(N)=O)C(N)=O [RLF-100, aviptadil]
recovery from respiratory failure [1]: rapid recovery from respiratory failure
replication of the SARS coronavirus [2]: blocked replication

secretin (HSDGTFTSELSRLRDSARLQRLLQGLV; not fully specified (C-terminus); ends and bridges not checked; UniProt P63298 33-59, looked up)
pancreatic duct diameter ([3]; in vivo): increases the pancreatic duct diameter
sphincter of Oddi ([3]; in vivo): causes sphincter of Oddi relaxation
volume and bicarbonate content of pancreatic juice ([3]; primary action): increase the volume and bicarbonate content
crossing of the blood-brain barrier [4]: rapidly crosses the blood-brain barrier
distribution in the body [4]: highly and rapidly distributed

synthetic porcine secretin: new synthetic porcine secretin, manufactured by ChiRhoClin, Inc. (HSDGTFTSELSRLRDSARLQRLLQGLV; not fully specified (C-terminus); ends and bridges not checked; UniProt P63298 33-59, looked up)
effectiveness as a pancreatic secretagogue ([3]; compared with secretin extracted from porcine duodenum): equally effective
